Values quoted from earlier work in patent US8722114B2, “Compositions and methods for increasing human growth hormone levels” (Quality IP Holdings, LLC, priority 2012, dated 2014).

What was measured:
[1] = subcutaneous injection of 0.06 IU, GH deficient subjects

Molecule	Elevation of serum hGH levels (hGH; 30 g, intravenous, in males) [fold]	Increase of hGH levels (hGH; intravenous infusion of 183 mg/kg body weight in females) [fold]	Mean levels of GH reached [1] [ng/mL]
N=C(N)NCCC[C@H](N)C(=O)O [arginine]	8.6	> 20	–
HGH: human growth hormone, injected subcutaneously in a cited study	–	–	0.4
